Data as given in the NIST ThermoML archive (doi:10.1021/je060032n).
Numbers after ± are expanded uncertainties.

Test: refractive index (Na D-line) (dimensionless); xn = mol fraction of the nth substance listed
Conditions: 101 kPa, Liquid, Standard Abbe refractometry

NCCNCCO [N-(2-aminoethyl)ethanolamine] + O
refractive index
Conditions | 298.15 K | 303.15 K | 313.15 K | 323.15 K | 333.15 K
x1 = 0.05 | 1.37012 ± 0.00044 | 1.36931 ± 0.00045 | 1.36749 ± 0.00046 | 1.36542 ± 0.00046 | 1.36367 ± 0.00052
x1 = 0.07 | 1.38204 ± 0.00039 | 1.3811 ± 0.00043 | 1.37909 ± 0.00043 | 1.37696 ± 0.00043 | 1.37507 ± 0.00045
x1 = 0.1 | 1.39796 ± 0.00044 | 1.39682 ± 0.00039 | 1.39453 ± 0.00042 | 1.39214 ± 0.00042 | 1.38992 ± 0.00057
x1 = 0.2 | 1.43314 ± 0.00085 | 1.4318 ± 0.00037 | 1.4289 ± 0.00045 | 1.42583 ± 0.00046 | 1.42264 ± 0.00087
x1 = 0.3 | 1.45253 ± 0.00041 | 1.45087 ± 0.00042 | 1.44762 ± 0.00047 | 1.44425 ± 0.00047 | 1.44087 ± 0.00069
x1 = 0.4 | 1.46321 ± 0.00034 | 1.46158 ± 0.00045 | 1.45811 ± 0.00048 | 1.45463 ± 0.00048 | 1.45107 ± 0.00058
x1 = 0.5 | 1.4703 ± 0.00038 | 1.46857 ± 0.00047 | 1.46502 ± 0.00049 | 1.46146 ± 0.00049 | 1.45777 ± 0.00055
x1 = 0.5996 | 1.47498 ± 0.00043 | 1.47321 ± 0.00049 | 1.46961 ± 0.00049 | 1.46604 ± 0.0005 | 1.46223 ± 0.00054
x1 = 0.7011 | 1.47851 ± 0.00046 | 1.47671 ± 0.00049 | 1.47308 ± 0.0005 | 1.46938 ± 0.00051 | 1.4656 ± 0.00053
x1 = 0.8002 | 1.48101 ± 0.00048 | 1.47918 ± 0.0005 | 1.47552 ± 0.00051 | 1.47177 ± 0.00051 | 1.46805 ± 0.00053
x1 = 0.8979 | 1.48289 ± 0.0005 | 1.48103 ± 0.00051 | 1.47734 ± 0.00052 | 1.47359 ± 0.00052 | 1.46977 ± 0.00053
x1 = 1 | 1.48454 ± 0.00052 | 1.48269 ± 0.00053 | 1.47884 ± 0.00053 | 1.47516 ± 0.00053 | 1.47128 ± 0.00054
